The values that follow come from patent US10703764B2, “Benzopiperazine compositions as BET bromodomain inhibitors” (FORMA Therapeutics, Inc., priority 2013, dated 2020).

SMILES strings stand for the structures. Some results are limits rather than exact numbers.

Test [1] has as its system MV4-11 cells. The test is described as follows: Oncology cell growth assay (3-day proliferation, CellTiter-Glo). It counts as cell-based. The following applies: Homo sapiens, MV4-11, 72 h, AML cell line MV4-11, 72 hours, compounds grouped by IC50 range, read-out: MV4-11 IC50 (inhibition of proliferation, gIC50). The gist of the method: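 Compounds were serially diluted 3-fold in DMSO, giving final well concentrations from 10 down to 0.0045 μM. MV4-11 cells were then seeded at 3000 cells/well in RPMI 1640 with 10% FBS and incubated 72 hours. CellTiter-Glo signal was measured and gIC50 obtained by four-parameter logistic regression.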

Test [2] has as its target T1, BRD4 BD1 (Homo sapiens, UniProt O60885).
T1 construct: made in house
The test is described as follows: AlphaScreen binding assay, BRD4 Bromodomain 1. The gist of the method: (§1)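 Compound dilution series were mixed with His-tagged BRD4 bromodomain and biotinylated tetra-acetylated H4 (1-21) peptide at pH 7.3 (BD1 and peptide at 50 nM, BD2 and peptide at 100 nM). Donor and acceptor beads were then added, and plates were equilibrated at least 1 h before reading. IC50 values were fitted with a four-parameter logistic model.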
(In general: In Alpha technology, singlet oxygen from a donor bead excites a nearby acceptor bead.)

The target in test [3] is T2, BRD4 BD2 (Homo sapiens, UniProt O60885).
T2 construct: made in house
The test is described as follows: AlphaScreen binding assay, BRD4 Bromodomain 2. The gist of the method: as §1

For the compound `CC(=O)N1c2ccc(-c3cnn(C4CCCS(=O)(=O)C4)c3)cc2N(C(=O)OC2CC(F)(F)C2)C[C@@H]1C` (stereo partly drawn) [Example I-162, 3,3-difluorocyclobutyl (3S)-4-acetyl-7-[1-(1,1-dioxo-1λ^6-thian-3-yl)-1H-pyrazol-4-yl]-3-methyl-1,2,3,4-tetrahydroquinoxaline-1-carboxylate], the IC50 was in the range of 100 to 500 nM in test [1], 100 to 1000 nM in test [2] and 50 to 500 nM in test [3].
With `COc1ccc(C)cc1OC(=O)N1C[C@H](C)N(C(C)=O)c2ccc(-c3cnn(C4CC4)c3)cc21` [Example I-508], the IC50 fell in the range of 100 to 500 nM in test [1], 100 to 1000 nM in test [2] and 50 to 500 nM in test [3].
For the compound `CC(=O)N1c2ccc(-c3cnn(C4CC4)c3)cc2N(C(=O)Oc2cc(F)ccc2F)C[C@@H]1C` [Example I-503], the results for the IC50 in test [1], in test [2] and in test [3] were 100 to 500 nM, 100 to 1000 nM and 50 to 500 nM, respectively.
Regarding `CC(=O)N1c2ccc(-c3cnn(CC4CCC4)c3)cc2N(C(=O)C2CC2)C[C@@H]1C` [Example I-656], the IC50 in test [1] was 100 to 500 nM; in test [2] it was 100 to 1000 nM; in test [3], 50 to 500 nM.
The matching figures for `CCOC(=O)N1C[C@H](C)N(C(C)=O)c2ccc(-c3cccc(S(=O)(=O)NC)c3)cc21` [Example I-1106]: 100 to 500 nM, 1000 to 10000 nM and 50 to 500 nM.
As to `CCOC(=O)N1C[C@H](C)N(C(C)=O)c2ccc(-c3cnn(C4CC4)c3)cc21` [Example I-21, (S)-ethyl 4-acetyl-7-(1-cyclopropyl-1H-pyrazol-4-yl)-3-methyl-3,4-dihydroquinoxaline-1(2H)-carboxylate], the IC50 in test [1] lay in the range of 100 to 500 nM; in test [2], 100 to 1000 nM; in test [3], 50 to 500 nM.
Taken in the same sequence, the figures for `CC(=O)N1c2ccc(-c3ccc(S(=O)(=O)C4CC4)cc3)cc2N(C(=O)OC(C)C)C[C@@H]1C` [Example I-1034] were 100 to 500 nM, 100 to 1000 nM and 50 to 500 nM.
Taken in the same sequence, the figures for `CC(=O)N1c2ccc(-c3cn(C)nn3)cc2N(C(=O)OC(C)C)C[C@@H]1C` [Example I-465] were 100 to 500 nM, 100 to 1000 nM and 50 to 500 nM.
On to `CC(=O)N1c2ccc(-c3cccc(S(N)(=O)=O)c3)cc2N(C(=O)C2CCC2)C[C@@H]1C` [Example I-1040], for which the IC50 in test [1] is 100 to 500 nM; in test [2], 1000 to 10000 nM; in test [3], less than 50 nM.
Taken in the same sequence, the figures for `CC(=O)N1c2ccc(-c3ccc(S(=O)(=O)n4cccn4)cc3)cc2N(C(=O)OC2CCOCC2)C[C@@H]1C` [Example I-1260] were greater than 500 nM, 100 to 1000 nM and 50 to 500 nM.
Taken in the same sequence, the figures for `CC(=O)N1c2ccc(-c3ccc(C(=O)N4CC[C@H](N)C4)cc3)cc2N(C(=O)OC(C)C)C[C@@H]1C` [Example I-586] were 100 to 500 nM, 100 to 1000 nM and 50 to 500 nM.
For `CC(=O)N1c2ccc(-c3cnn(C4CC4)c3)cc2N(C(=O)OC2COC2)C[C@@H]1C` [Example I-997], the IC50 in test [1] fell in the range of 100 to 500 nM; in test [2], 100 to 1000 nM; in test [3], 50 to 500 nM.
Take `CC(=O)N1c2ccc(-c3cnn(CC4(CO)COC4)c3)cc2N(C(=O)C2CC2)C[C@@H]1C` [Example I-662]: the IC50 in test [1] is greater than 500 nM; in test [2] it was 100 to 1000 nM; in test [3], 50 to 500 nM.
For the compound `CC(=O)N1c2ccc(-c3cnn(C4CCOCC4)c3)cc2N(C(=O)OC2CCOCC2)C[C@@H]1C` [Example I-38, (S)-tetrahydro-2H-pyran-4-yl 4-acetyl-3-methyl-7-(1-(tetrahydro-2H-pyran-4-yl)-1H-pyrazol-4-yl)-3,4-dihydroquinoxaline-1(2H)-carboxylate], the IC50 in test [1] is 100 to 500 nM; in test [2], 100 to 1000 nM; in test [3], 50 to 500 nM.
Turning to `CC(=O)N1c2ccc(-c3cnn(C4CC4)c3)cc2N(C(=O)Oc2ccccc2F)C[C@@H]1C` [Example I-519], the IC50 in test [1] was less than 100 nM; in test [2], 100 to 1000 nM; in test [3], 50 to 500 nM.
The matching figures for `CC(=O)N1c2cc(C#N)c(-c3cnn(C4CC4)c3)cc2N(C(=O)OC(C)C)C[C@@H]1C` [Example I-211, Isopropyl (S)-4-acetyl-6-cyano-7-(1-cyclopropyl-1H-pyrazol-4-yl)-3-methyl-3,4-dihydroquinoxaline-1(2H)-carboxylate]: greater than 500 nM, 100 to 1000 nM and greater than 500 nM.
As to `CCCS(=O)(=O)c1ccc(-c2ccc3c(c2)N(C(=O)OC2CCOCC2)C[C@H](C)N3C(C)=O)cc1` [Example I-1236], the IC50 in test [1] lay in the range of 100 to 500 nM; in test [2] it was 100 to 1000 nM; in test [3], 50 to 500 nM.
`CC(=O)N1c2ccc(-c3cnn(C(C)(C)CO)c3)cc2N(C(=O)Oc2ccc(F)cc2F)C[C@@H]1C` [Example I-1014]: the IC50 in test [1] was 100 to 500 nM; in test [2], 100 to 1000 nM; in test [3], less than 50 nM.
On to `CC(=O)N1c2ccc(-c3cnn(CCF)c3)cc2N(C(=O)C2CC2)C[C@@H]1C` [Example I-671], for which the IC50 in test [1] lay in the range of 100 to 500 nM; in test [2], 100 to 1000 nM; in test [3], 50 to 500 nM.
The matching figures for `CCNS(=O)(=O)c1ccc(-c2ccc3c(c2)N(C(=O)OCC)C[C@H](C)N3C(C)=O)cc1` [Example I-1137]: 100 to 500 nM, 100 to 1000 nM and 50 to 500 nM.
Taken in the same sequence, the figures for `CC(=O)N1c2ccc(-c3cnn(CC#N)c3)cc2N(C(=O)OC(C)C)C[C@@H]1C` [Example I-607] were 100 to 500 nM, 100 to 1000 nM and 50 to 500 nM.
`CCS(=O)(=O)c1ccc(-c2ccc3c(c2)N(C(=O)C2CCC2)C[C@H](C)N3C(C)=O)cc1` [Example I-1028]: the IC50 in test [1] was greater than 500 nM; in test [2], 1000 to 10000 nM; in test [3], 50 to 500 nM.
The matching figures for `CC(=O)N1c2ccc(-c3ccc(S(=O)(=O)NC(C)(C)C)cc3)cc2N(C(=O)C2CC2)C[C@@H]1C` [Example I-1127]: 100 to 500 nM, 1000 to 10000 nM and 50 to 500 nM.
For `CC(=O)N1c2ccc(-c3cnn(CCO)c3)cc2N(C(=O)Oc2cccnc2)C[C@@H]1C` [Example I-1281], the IC50 lay within 100 to 500 nM in test [1], 100 to 1000 nM in test [2] and 50 to 500 nM in test [3].
Taken in the same sequence, the figures for `CC(=O)N1c2ccc(-c3ccc(S(=O)(=O)C4CC4)cc3)cc2N(C(=O)C2CCC2)C[C@@H]1C` [Example I-1032] were 100 to 500 nM, 1000 to 10000 nM and 50 to 500 nM.
The matching figures for `CC(=O)N1c2ccc(-c3cccc(NS(C)(=O)=O)c3)cc2N(C(=O)C2CCC2)C[C@@H]1C` [Example I-1044]: greater than 500 nM, 1000 to 10000 nM and 50 to 500 nM.
For `CC(=O)N1c2ccc(-c3cnn(C4COC4)c3)cc2N(C(=O)Oc2ccncc2)C[C@@H]1C` [Example I-90, (S)-pyridin-4-yl 4-acetyl-3-methyl-7-(1-(oxetan-3-yl)-1H-pyrazol-4-yl)-3,4-dihydroquinoxaline-1(2H)-carboxylate], the results for the IC50 in test [1], in test [2] and in test [3] were 100 to 500 nM, less than 100 nM and less than 50 nM, respectively.
On to `CC(=O)N1c2ccc(-c3cnn(CCO)c3)cc2N(c2nn(C)c3cc(F)ccc23)C[C@@H]1C` [Example I-188, 1-[(2S)-4-(6-fluoro-1-methyl-1H-indazol-3-yl)-6-[1-(2-hydroxyethyl)-1H-pyrazol-4-yl]-2-methyl-1,2,3,4-tetrahydroquinoxalin-1-yl]ethan-1-one], for which the IC50 in test [1] is 100 to 500 nM; in test [2] it was 100 to 1000 nM; in test [3] it was less than 50 nM.
The matching figures for `CC(=O)N1c2ccc(-c3cnn(CCC#N)c3)cc2N(C(=O)Oc2ccc(F)cc2F)C[C@@H]1C` [Example I-1012]: 100 to 500 nM, 100 to 1000 nM and less than 50 nM.
`CNS(=O)(=O)c1ccc(-c2ccc3c(c2)N(C(=O)C2CC2)C[C@H](C)N3C(C)=O)cc1` [Example I-1119]: the results for the IC50 in test [1], in test [2] and in test [3] were 100 to 500 nM, 1000 to 10000 nM and 50 to 500 nM, respectively.
The matching figures for `CC(=O)N1c2ccc(-c3ccc(N(C)S(C)(=O)=O)cc3)cc2N(C(=O)C2CC2)C[C@@H]1C` [Example I-350]: 100 to 500 nM, 1000 to 10000 nM and 50 to 500 nM.
With `CC(=O)N1c2ccc(-c3ccc(C(=O)N(C)CCN4CCCC4)cc3)cc2N(C(=O)OC(C)C)C[C@@H]1C` [Example I-551], the IC50 in test [1] lay in the range of 100 to 500 nM; in test [2] it was 100 to 1000 nM; in test [3] it was 50 to 500 nM.
The matching figures for `CC(=O)N1c2ccc(-c3ccc(N4CCOCC4)cc3)cc2N(C(=O)C2CCC2)C[C@@H]1C` [Example I-1059]: 100 to 500 nM, 1000 to 10000 nM and 50 to 500 nM.
With `CC(=O)N1c2ccc(-c3ccc(S(=O)(=O)NCCO)cc3)cc2N(C(=O)OC(C)C)C[C@@H]1C` [Example I-1038], the IC50 is 100 to 500 nM in test [1], 100 to 1000 nM in test [2] and 50 to 500 nM in test [3].
In the case of `CC(=O)N1c2ccc(-c3ccc(S(=O)(=O)NCCO)cc3)cc2N(C(=O)c2ccco2)C[C@@H]1C` [Example I-293], the values for the IC50 in test [1], in test [2] and in test [3] were 100 to 500 nM, 1000 to 10000 nM and less than 50 nM, respectively.
As to `COCCn1cc(-c2ccc3c(c2)N(C(=O)OC(C)C)C[C@H](C)N3C(=O)OC)cn1` [Example I-323], the results for the IC50 in test [1], in test [2] and in test [3] were 100 to 500 nM, 100 to 1000 nM and 50 to 500 nM, respectively.
